The record followed here is US20100168079A1 (priority 2008, published 2010).

In the experiment the target is T1, human S1P1 receptors (Homo sapiens, UniProt P21453).
T1 construct: myc (N); expressed in transfected cells; host or cells: HeLa (human cervix carcinoma, ATCC CCL2), HeLa-S1P1/Gα16 cell clone 1
As to the kind of experiment: Human S1P1 Receptor Calcium FLIPR Antagonist Assay (HeLa Gα16 S1P1). The format is cell-based. As to conditions: relative antagonism of Ca2+ signal evoked by probing agonist GNF-AC-1 at EC80; HeLa-S1P1/Gα16 cells. The method, then:
Human S1P1 Receptor Calcium FLIPR Antagonist Assay
The cells are plated in 384 well black plates (10′000 cells per well). […] After washing, the cells are transferred to the FLIPR. The test compounds are added at different concentrations […]) in HBSS in the presence of 0.1% BSA and changes in fluorescence are recorded (indication of agonism). The probing agonist is added 20-30 minutes afterwards to the wells at a concentration giving 80% of the maximal activity (EC80). After each addition, time points are collected as follows: 20 time points (2 seconds) before the addition of the agonist (Fmin) and 60 time points (1 or 2 seconds) after the addition of the probing agonist. This allows the determination of the maximal fluorescence (Fmax). The ratio (Fmax-Fmin)/Fmin is plotted against the log of the concentration of the test compounds and the IC50 (relative antagonism) is calculated using the XLfit-4 software. […] A concentration-response curve of the probing agonist is determined on each plate in parallel.

T1 sequence (P21453 whole entry): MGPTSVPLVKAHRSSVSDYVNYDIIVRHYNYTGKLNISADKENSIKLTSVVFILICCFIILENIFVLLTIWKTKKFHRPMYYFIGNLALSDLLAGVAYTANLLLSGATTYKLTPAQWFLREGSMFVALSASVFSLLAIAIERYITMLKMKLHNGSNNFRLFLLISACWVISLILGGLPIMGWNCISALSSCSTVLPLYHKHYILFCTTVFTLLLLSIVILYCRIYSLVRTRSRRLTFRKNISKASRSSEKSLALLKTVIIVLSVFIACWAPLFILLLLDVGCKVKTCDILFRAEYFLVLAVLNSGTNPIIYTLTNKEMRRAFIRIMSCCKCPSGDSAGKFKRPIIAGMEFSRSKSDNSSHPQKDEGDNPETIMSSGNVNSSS

On to `Cc1cc(C(Nc2cccc(-c3cc(C)c(C(=O)N[C@@H](C)C(=O)O)c(C)c3)c2)C(C)C)ccc1Cl` (stereo partly drawn) [Example 90, (S)-2-({3′-[1-(4-Chloro-3-methyl-phenyl)-2-methyl-propylamino]-3,5-dimethyl-biphenyl-4-carbonyl}-amino)-propionic acid], for which the IC50 came out at 10 nM.

In the case of `Cc1cc(C(Nc2cccc(-c3ccc(C(=O)N(C)[C@@H](C)C(=O)O)c(C(F)(F)F)c3)c2)C(F)(F)F)ccc1Cl` (stereo partly drawn) [Example 91, (S)-2-({3′-[1-(4-Chloro-3-methyl-phenyl)-2,2,2-trifluoro-ethylamino]-3-trifluoromethyl-biphenyl-4-carbonyl}-methyl-amino)-propionic acid], the IC50 was found to be 4 nM.

For the molecule `Cc1cc(C(Nc2cccc(-c3ccc(C(=O)N[C@@H](C)C(=O)O)c(C(F)(F)F)c3)c2)C(F)(F)F)ccc1Cl` (stereo partly drawn) [Example 92, (S)-2-({3′-[1-(4-Chloro-3-methyl-phenyl)-2,2,2-trifluoro-ethylamino]-3-trifluoromethyl-biphenyl-4-carbonyl}-amino)-propionic acid], the IC50 was 4 nM.

`Cc1cc(C(Nc2cccc(-c3ccc(C(=O)N(C)C4(C(=O)O)CC4)c(C(F)(F)F)c3)c2)C(F)(F)F)ccc1Cl` (stereo not drawn) [Example 93, 1-({3′-[1-(4-Chloro-3-methyl-phenyl)-2,2,2-trifluoro-ethylamino]-3-trifluoromethyl-biphenyl-4-carbonyl}-methyl-amino)-cyclopropanecarboxylic acid]: the IC50 was 4 nM.

With `Cc1cc(C(Nc2cccc(-c3ccc(C(=O)N[C@@H](C)C(=O)O)c(Cl)c3)c2)C(F)(F)F)ccc1Cl` (stereo partly drawn) [Example 94], the IC50 is 14 nM.

On to `Cc1cc(C(Nc2cccc(-c3ccc(C(=O)NC4(C(=O)O)CC4)c(Cl)c3)c2)C(F)(F)F)ccc1Cl` (stereo not drawn) [Example 95, 1-({3-Chloro-3′-[1-(4-chloro-3-methyl-phenyl)-2,2,2-trifluoro-ethylamino]-biphenyl-4-carbonyl}-amino)-cyclopropanecarboxylic acid], for which the IC50 turned out to be 14 nM.

In the case of `Cc1cc([C@H](Nc2cccc(-c3ccc(C(=O)N(C)[C@@H](C)C(=O)O)c(Cl)c3)c2)C(F)(F)F)ccc1Cl` [Example 96, (S)-2-({3-Chloro-3′-[(S)-1-(4-chloro-3-methyl-phenyl)-2,2,2-trifluoro-ethylamino]-biphenyl-4-carbonyl}-methyl-amino)-propionic acid], the IC50 came to 2 nM.

For the molecule `Cc1cc(C(C)(C)Nc2cccc(-c3ccc(C(=O)N[C@@H](C)C(=O)O)c(Cl)c3)c2)ccc1Cl` [Example 97, (S)-2-({3-Chloro-3′-[1-(4-chloro-3-methyl-phenyl)-1-methyl-ethylamino]-biphenyl-4-carbonyl}-amino)-propionic acid], the IC50 turned out to be 1 nM.

Turning to `Cc1cc(C(C)(C)Nc2cccc(-c3ccc(C(=O)N(C)[C@@H](C)C(=O)O)c(Cl)c3)c2)ccc1Cl` [Example 98, (S)-2-({3-Chloro-3′-[1-(4-chloro-3-methyl-phenyl)-1-methyl-ethylamino]-biphenyl-4-carbonyl}-methyl-amino)-propionic acid], the IC50 was 4 nM.

In the case of `CC[C@@H](Nc1cccc(-c2cc(C)c(C(=O)N[C@@H](C)C(=O)O)c(C)c2)c1)c1cc(C)c(Cl)c(C)c1` [Example 101, (S)-2-({3′-[(R)-1-(4-Chloro-3,5-dimethyl-phenyl)-propylamino]-3,5-dimethyl-biphenyl-4-carbonyl}-amino)-propionic acid], the IC50 stood at 1 nM.

Turning to `CC[C@@H](Nc1cccc(-c2cc(C)c(C(=O)NC3(C(=O)O)CC3)c(C)c2)c1)c1cc(C)c(Cl)c(C)c1` [Example 102, 1-({3-[(R)-1-(4-Chloro-3,5-dimethyl-phenyl)-propylamino]-3,5-dimethyl-biphenyl-4-carbonyl}-amino)-cyclopropanecarboxylic acid], the IC50 came to 1 nM.

Turning to `CC[C@H](c1ccc(Cl)c(C)c1)N(C)c1cccc(-c2cc(C)c(C(=O)N[C@@H](C)C(=O)O)c(C)c2)c1` [Example 104, (S)-2-[(3′-{[(R)-1-(4-Chloro-3-methyl-phenyl)-propyl]-methyl-amino}-3,5-dimethyl-biphenyl-4-carbonyl)-amino]-propionic acid], the IC50 was determined as 1 nM.

Take `CC[C@@H](Nc1cccc(-c2cc(C)c(C(=O)N(C)[C@@H](C)C(=O)O)c(C)c2)c1)c1ccc(Cl)c(C)c1` [Example 107, (S)-2-({3′-[(R)-1-(4-Chloro-3-methyl-phenyl)-propylamino]-3,5-dimethyl-biphenyl-4-carbonyl}-methyl-amino)-propionic acid]: the IC50 came to 1 nM.

As for `CC[C@H](c1ccc(Cl)c(C)c1)N(C)c1cccc(-c2cc(C)c(C(=O)N(C)C3(C(=O)O)CC3)c(C)c2)c1` [Example 110, 1-[(3′-{[(R)-1-(4-Chloro-3-methyl-phenyl)-propyl]-methyl-amino}-3,5-dimethyl-biphenyl-4-carbonyl)-methyl-amino]-cyclopropanecarboxylic acid], the IC50 is 35 nM.

For the molecule `CC[C@@H](Nc1cccc(-c2cc(C)c(C(=O)N(C)C3(C(=O)O)CC3)c(C)c2)c1)c1ccc(Cl)c(C)c1` [Example 111, 1-({3′-[(R)-1-(4-Chloro-3-methyl-phenyl)-propylamino]-3,5-dimethyl-biphenyl-4-carbonyl}-methyl-amino)-cyclopropanecarboxylic acid], the IC50 came to 8 nM.

Regarding `Cc1cc([C@@H](C)Nc2cccc(-c3cc(C)c(C(=O)N[C@@H](CN)C(=O)O)c(C)c3)c2)ccc1Cl` [Example 114, (S)-3-Amino-2-({3′-[(R)-1-(4-chloro-3-methyl-phenyl)-ethylamino]-3,5-dimethyl-biphenyl-4-carbonyl}-amino)-propionic acid], the IC50 amounted to 1 nM.

For `CC[C@H](c1ccc(Cl)c(C)c1)N(C)c1ccc(F)c(-c2cc(C)c(C(=O)N[C@@H](C)C(=O)O)c(C)c2)c1` [Example 116, (S)-2-[(5′-{[(R)-1-(4-Chloro-3-methyl-phenyl)-propyl]-methyl-amino}-2′-fluoro-3,5-dimethyl-biphenyl-4-carbonyl)-amino]-propionic acid], the IC50 was 2 nM.

On to `CC[C@H](c1ccc(Cl)c(C)c1)N(C)c1ccc(F)c(-c2cc(C)c(C(=O)N(C)[C@@H](C)C(=O)O)c(C)c2)c1` [Example 118, (S)-2-[(5′-{[(R)-1-(4-Chloro-3-methyl-phenyl)-propyl]-methyl-amino}-2′-fluoro-3,5-dimethyl-biphenyl-4-carbonyl)-methyl-amino]-propionic acid], for which the IC50 came out at 4 nM.

In general, IC50 refers to the concentration at which inhibition is half-maximal.
